Read-outs that look alike come from different tables or passages of the source.
Target: T1, IL33 and ST2 binding (Homo sapiens, UniProt O95760)
T1 sequence (O95760 112-270 limits assumed): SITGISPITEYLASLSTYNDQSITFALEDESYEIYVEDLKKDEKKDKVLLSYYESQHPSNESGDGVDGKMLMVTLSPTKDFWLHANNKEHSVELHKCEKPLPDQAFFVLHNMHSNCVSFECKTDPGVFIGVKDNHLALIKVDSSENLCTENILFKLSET
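Also: plate ELISA with coated Flag-tagged human IL-33 and His-tagged human ST2, bound ST2 detected by anti-His HRP and TMB absorbance at 450 nm, 2 h compound incubation.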

| inhibition (30 µM) [%] | inhibition (100 µM) [%] | Compound |
| --- | --- | --- |
| 54 | 60 | O=C(NCCN1CCCCC1)c1nc(-c2ccc(C(F)(F)F)cc2)oc1-c1ccccc1[N+](=O)[O-] [Compound 173, 5-(2-Nitrophenyl)-N-(2-(piperidin-1-yl)ethyl)-2-(4-(trifluoromethyl)phenyl)oxazole-4-carboxamide] |
| 9 | 8 | O=C(Nc1ccccn1)c1nc(-c2ccc(C(F)(F)F)cc2)oc1-c1ccccc1[N+](=O)[O-] [Compound 143, 5-(2-Nitrophenyl)-N-(pyridin-2-yl)-2-(4-(trifluoromethyl)phenyl)oxazole-4-carboxamide] |
| 0 | -25 | CCN(CC)CCN1CCN(C(=O)c2nc(-c3ccc(C(F)(F)F)cc3)oc2-c2ccccc2[N+](=O)[O-])CC1 [Compound 154, (4-(2-(Diethylamino)ethyl)piperazin-1-yl)(5-(2-nitrophenyl)-2-(4-(trifluoromethyl)phenyl)oxazol-4-yl)methanone] |
| -30 | -19 | CCOC(=O)N1CCN(C(=O)c2nc(-c3ccc(C(F)(F)F)cc3)oc2-c2ccccc2[N+](=O)[O-])CC1 [Compound 163, Ethyl 4-(5-(2-nitrophenyl)-2-(4-(trifluoromethyl)phenyl)oxazole-4-carbonyl)piperazine-1-carboxylate] |
| 8 | 32 | CN1CCN(CCNC(=O)c2nc(-c3ccc(Cl)cc3)oc2-c2ccccc2[N+](=O)[O-])CC1 [Compound 247, 2-(4-Chlorophenyl)-N-(2-(4-methylpiperazin-1-yl)ethyl)-5-(2-nitrophenyl)oxazole-4-carboxamide] |
| 35 | 32 | CCOC(=O)c1nc(-c2cccc(F)c2)oc1-c1ccccc1 [Compound 65, Ethyl 2-(3-fluorophenyl)-5-phenyloxazole-4-carboxylate] |
| 18 | 29 | COCCNC(=O)c1nc(-c2ccc(C(F)(F)F)cc2)oc1-c1ccccc1[N+](=O)[O-] [Compound 160, N-(2-Methoxyethyl)-5-(2-nitrophenyl)-2-(4-(trifluoromethyl)phenyl)oxazole-4-carboxamide] |
| 1 | -24 | CCOC(=O)c1nc(-c2ccc(C(F)(F)F)cc2)oc1-c1ccc(N)cc1 [Compound 101, Ethyl 5-(4-aminophenyl)-2-(4-(trifluoromethyl)phenyl)oxazole-4-carboxylate] |
| 50 | 31 | CN1CCN(CCNC(=O)c2nc(-c3cccc(C(F)(F)F)c3)oc2-c2ccccc2[N+](=O)[O-])CC1 [Compound 124, N-(2-(4-Methylpiperazin-1-yl)ethyl)-5-(2-nitrophenyl)-2-(3-(trifluoromethyl)phenyl)oxazole-4-carboxamide] |
| -2 | -14 | CN(C)CCNC(=O)c1nc(-c2cccc(F)c2)oc1-c1ccccc1 [Compound 220, N-(2-(Dimethylamino)ethyl)-2-(3-fluorophenyl)-5-phenyloxazole-4-carboxamide] |
| -20 | -2 | CCOC(=O)c1nc(-c2ccc(C(F)(F)F)cc2)oc1-c1cccc(NC(C)=O)c1 [Compound 106, Ethyl 5-(3-acetamidophenyl)-2-(4-(trifluoromethyl)phenyl)oxazole-4-carboxylate] |
| 33 | 65 | CCOC(=O)c1nc(-c2ccc(OC)cc2)oc1-c1ccccc1 [Compound 62, Ethyl 2-(4-methoxyphenyl)-5-phenyloxazole-4-carboxylate] |
| 30 | 53 | CCOC(=O)c1nc(-c2ccccc2C(F)(F)F)oc1-c1ccccc1[N+](=O)[O-] [Compound 28, Ethyl 5-(2-nitrophenyl)-2-(2-(trifluoromethyl)phenyl)oxazole-4-carboxylate] |
| 14 | 33 | CN1CCN(CCNC(=O)c2nc(-c3ccc(N(C)C)cc3)oc2-c2ccccc2)CC1 [Compound 262, 2-(4-(Dimethylamino)phenyl)-N-(2-(4-methylpiperazin-1-yl)ethyl)-5-phenyloxazole-4-carboxamide] |
| -14 | -12 | CN(C)CCNC(=O)c1nc(-c2cccc(Cl)c2)oc1-c1ccccc1[N+](=O)[O-] [Compound 242, 2-(3-Chlorophenyl)-N-(2-(dimethylamino)ethyl)-5-(2-nitrophenyl)oxazole-4-carboxamide] |
| 18 | 20 | CSc1ccc(-c2nc(C(=O)NCCN3CCN(C)CC3)c(-c3ccccc3[N+](=O)[O-])o2)cc1 [Compound 274, N-(2-(4-Methylpiperazin-1-yl)ethyl)-2-(4-(methylthio)phenyl)-5-(2-nitrophenyl)oxazole-4-carboxamide] |

| inhibition (30 µM) [%] | inhibition (100 µM) [%] | Compound |
| --- | --- | --- |
| 19 | 26 | CCOC(=O)c1nc(-c2ccc(C(C)(C)C)cc2)oc1-c1ccc(N(C(C)=O)C(C)=O)cc1 [Compound 110, Ethyl 5-(4-(N-acetylacetamido)phenyl)-2-(4-(tert-butyl)phenyl)oxazole-4-carboxylate] |
| 51 | 50 | CC(C)(C)OC(=O)N1CCN(CCNC(=O)c2nc(-c3ccc(C(F)(F)F)cc3)oc2-c2ccccc2[N+](=O)[O-])CC1 [Compound 172, tert-Butyl-4-(2-(5-(2-nitrophenyl)-2-(4-(trifluoromethyl)phenyl)oxazole-4-carboxamido)ethyl)piperazine-1-carboxylate] |
| -35 | -57 | O=C(c1nc(-c2ccc(C(F)(F)F)cc2)oc1-c1ccccc1[N+](=O)[O-])N1CCN(C2CC2)CC1 [Compound 146, (4-Cyclopropylpiperazin-1-yl)(5-(2-nitrophenyl)-2-(4-(trifluoromethyl)phenyl)oxazol-4-yl)methanone] |
| 42 | 102 | CCOC(=O)c1nc(-c2cccc(C(F)(F)F)c2)oc1-c1ccccc1[N+](=O)[O-] [Compound 30, Ethyl 5-(2-nitrophenyl)-2-(3-(trifluoromethyl)phenyl)oxazole-4-carboxylate] |
| -6 | 7 | CN1CCN(CCNC(=O)c2nc(-c3ccc(F)cc3)oc2-c2ccccc2)CC1 [Compound 225, 2-(4-Fluorophenyl)-N-(2-(4-methylpiperazin-1-yl)ethyl)-5-phenyloxazole-4-carboxamide] |
| -14 | -21 | CCOC(=O)c1nc(-c2ccc(C(F)(F)F)cc2)oc1-c1cccc(N(C(C)=O)C(C)=O)c1 [Compound 108, Ethyl 5-(3-(N-acetylacetamido)phenyl)-2-(4-(trifluoromethyl)phenyl)oxazole-4-carboxylate] |
| 46 | 84 | COc1ccc(-c2nc(C(=O)N3CCN(CCN(C)C)CC3)c(-c3ccccc3[N+](=O)[O-])o2)cc1 [Compound 216, (4-(2-(Dimethylamino)ethyl)piperazin-1-yl)(2-(4-methoxyphenyl)-5-(2-nitrophenyl)oxazol-4-yl)methanone] |
| 23 | 29 | CCN(CC)CCNC(=O)c1nc(-c2ccc(C(C)(C)C)cc2)oc1-c1ccccc1 [Compound 267, 2-(4-(tert-butyl)phenyl)-N-(2-(diethylamino)ethyl)-5-phenyloxazole-4-carboxamide] |
| -8 | -7 | CN1CCN(CCNC(=O)c2nc(-c3cc(F)cc(F)c3)oc2-c2ccccc2)CC1 [Compound 236, 2-(3,5-Difluorophenyl)-N-(2-(4-methylpiperazin-1-yl)ethyl)-5-phenyloxazole-4-carboxamide] |
| 2 | -1 | O=C(NCC1CCCO1)c1nc(-c2ccc(C(F)(F)F)cc2)oc1-c1ccccc1[N+](=O)[O-] (stereo not drawn) [Compound 159, 5-(2-Nitrophenyl)-N-((tetrahydrofuran-2-yl)methyl)-2-(4-(trifluoromethyl)phenyl)oxazole-4-carboxamide] |
| 34 | 84 | CCOC(=O)c1nc(-c2ccccc2C(F)(F)F)oc1-c1ccccc1 [Compound 27, Ethyl 5-phenyl-2-(2-(trifluoromethyl)phenyl)oxazole-4-carboxylate] |
| -34 | -21 | CN1CCN(CCNC(=O)c2nc(-c3cccc(F)c3)oc2-c2ccccc2)CC1 [Compound 221, 2-(3-Fluorophenyl)N-(2-(4-methylpiperazin-1-yl)ethyl)-5-phenyloxazole-4-carboxamide] |
| 9 | 4 | O=C(NCc1ccccc1)c1nc(-c2ccc(C(F)(F)F)cc2)oc1-c1ccccc1[N+](=O)[O-] [Compound 164, N-Benzyl-5-(2-nitrophenyl)-2-(4-(trifluoromethyl)phenyl)oxazole-4-carboxamide] |
| 59 | 109 | CCOC(=O)c1nc(-c2ccc(-c3ccccc3)cc2)oc1-c1ccccc1 [Compound 81, Ethyl 2-([1,1′-biphenyl]-4-yl)-5-phenyloxazole-4-carboxylate] |
| 13 | 35 | CCOC(=O)c1nc(-c2ccc(OC)cc2)oc1-c1ccc([N+](=O)[O-])cc1 [Compound 64, Ethyl 2-(4-methoxyphenyl)-5-(4-nitrophenyl)oxazole-4-carboxylate] |
| 13 | 26 | CN(C)CCN1CCN(C(=O)c2coc(-c3ccc(C(F)(F)F)cc3)n2)CC1 [Compound 116, (4-(2-(dimethylamino)ethyl)piperazin-1-yl)(2-(4-(trifluoromethyl)phenyl)oxazol-4-yl)methanone] |

| Compound | inhibition (30 µM) [%] | inhibition (100 µM) [%] |
| --- | --- | --- |
| CN1CCN(CCNC(=O)c2nc(-c3ccc([N+](=O)[O-])cc3)oc2-c2ccccc2[N+](=O)[O-])CC1 [Compound 278, N-(2-(4-Methylpiperazin-1-yl)ethyl)-5-(2-nitrophenyl)-2-(4-nitrophenyl)oxazole-4-carboxamide] | 46 | 47 |

Reference: patent US20240287052A1, “NOVEL OXAZOLE DERIVATIVE AND PHARMACEUTICAL COMPOSITION FOR PREVENTING OR TREATING ALLERGIC DISEASES COMPRISING THE SAME” (AZCURIS CO., LTD., priority 2021, published 2024)
